Reference: US11779585B2 (priority 2020, dated 2023)
“And” between values parts separate entries of the source, which are not always exact repeats. Identical values can stand only once. Like-named read-outs stand apart in the source and are kept apart here.

How the values were obtained:
SARS-CoV2 = experiment: microbe, parasite or virus in culture; assay type: cell-based, SARS-CoV-2
SARS-CoV = settings: Dyall et al.; cited from earlier work
MERS-CoV = settings: Dyall et al.; cited from earlier work
Vero E6 cells = settings: hydrochloride
2019-nCoV = settings: Wang et al., not in Table 7; cited from earlier work
[1] = Severe acute respiratory syndrome coronavirus 2, Vero C1008

With `CN(C)CCCN1c2ccccc2Sc2ccc(Cl)cc21.Cl` [Chlorpromazine HCl, chlorpromazine HCl, reference compound] the Inhibition (SARS-CoV2; 30 µM, HCl) was 100.2%, the Inhibition (SARS-CoV2; 60 µM, HCl) was 100.2% and the IC50 (SARS-CoV2; [1]) was 7.2 µM. For the same molecule, the inhibition at 30 µM (SARS-CoV2; [1]) was 100%, the IC50 (SARS-CoV) was 13 µM and the IC50 (MERS-CoV) was 9.5 µM.
In the case of `Cl.NC(=O)c1cn([C@@H]2O[C@H](CO)[C@@H](O)[C@H]2O)c2ncnc(N)c12` [Oya2, 4-amino-7-((2R,3R,4S,5R)-3,4-dihydroxy-5-(hydroxymethyl)tetrahydrofuran-2-yl)-7H-pyrrolo[2,3-d]pyrimidine-5-carboxamide hydrochloride], the Inhibition (SARS-CoV2; 0.0047 μM, MOI 0.6, Plate 2, hydrochloride) is reported as 6.759% and 2.316%, the Inhibition (SARS-CoV2; 0.0047 μM, title MOI 0.6 (text MOI 1.3), Plate 1, hydrochloride) is reported as −4.548% and −2.306% and −5.003% and the Inhibition (SARS-CoV2; 0.0047 μM, title MOI 0.6 (text MOI 1.3), Plate 2, hydrochloride) is reported as −12.4801% and −9.091%. The Inhibition (SARS-CoV2; 0.0094 μM, MOI 0.6, Plate 2, hydrochloride) was 22.21%, the Inhibition (SARS-CoV2; 0.0094 μM, title MOI 0.6 (text MOI 1.3), Plate 2, hydrochloride) was −4.5066% and −0.5728% and 3.754% and the Inhibition (SARS-CoV2; 0.0188 μM, MOI 0.6, Plate 2, hydrochloride) was 9.743% and 4.635%. For the same molecule, the Inhibition (SARS-CoV2; 0.0188 μM, title MOI 0.6 (text MOI 1.3), Plate 1, hydrochloride) was 1.888% and −0.5178% and 4.439%, the Inhibition (SARS-CoV2; 0.0375 μM, MOI 0.6, Plate 1, hydrochloride) was 12.21% and 2.813% and 5.217% and the Inhibition (SARS-CoV2; 0.0375 μM, MOI 0.6, Plate 2, hydrochloride) was −1.2509% and −10.9963%. The Inhibition (SARS-CoV2; 0.0375 μM, title MOI 0.6 (text MOI 1.3), Plate 2, hydrochloride) was 9.292% and 6.13%, the Inhibition (SARS-CoV2; 0.075 μM, MOI 0.6, Plate 1, hydrochloride) was 48.8% and 30.54% and the Inhibition (SARS-CoV2; 0.075 μM, MOI 0.6, Plate 2, hydrochloride) was 77.73%. For the same molecule, the Inhibition (SARS-CoV2; 0.15 μM, MOI 0.6, Plate 1, hydrochloride) was 94.81% and 98.18%, the Inhibition (SARS-CoV2; 0.15 μM, MOI 0.6, Plate 2, hydrochloride) was 99.76% and the Inhibition (SARS-CoV2; 0.15 μM, title MOI 0.6 (text MOI 1.3), Plate 1, hydrochloride) was 100.5487% and 99.6%. The Inhibition (SARS-CoV2; 0.15 μM, title MOI 0.6 (text MOI 1.3), Plate 2, hydrochloride) was 95.57% and 98.32%, the Inhibition (SARS-CoV2; 0.3 μM, MOI 0.6, Plate 1, hydrochloride) was 99.8055% and the Inhibition (SARS-CoV2; 0.3 μM, MOI 0.6, Plate 2, hydrochloride) was 99.76%. It also gave an Inhibition (SARS-CoV2; 0.3 μM, title MOI 0.6 (text MOI 1.3), Plate 1, hydrochloride) of 99.49%, an Inhibition (SARS-CoV2; 0.3 μM, title MOI 0.6 (text MOI 1.3), Plate 2, hydrochloride) of 97.81% and an Inhibition (SARS-CoV2; 0.6 μM, MOI 0.6, Plate 1, hydrochloride) of 99.76%. For the same molecule, the Inhibition (SARS-CoV2; 0.6 μM, MOI 0.6, Plate 2, hydrochloride) was 100.0302%, the Cytotoxicity (Vero E6 cells; 0.0047 μM, MOI 0.6, Plate 1) was −2.54% and −1.465% and −2.751% and the Cytotoxicity (Vero E6 cells; 0.0047 μM, MOI 0.6, Plate 2) was −2.54% and −1.465% and −2.751%. For the same molecule, the Cytotoxicity (Vero E6 cells; 0.0094 μM, MOI 0.6, Plate 1) was 0.4496% and −3.731% and −1.047%, the Cytotoxicity (Vero E6 cells; 0.0094 μM, MOI 0.6, Plate 2) was 0.4496% and −3.731% and −1.047% and the Cytotoxicity (Vero E6 cells; 0.0188 μM, MOI 0.6, Plate 1) was −1.946% and −1.045% and −1.4651%. The Cytotoxicity (Vero E6 cells; 0.0188 μM, MOI 0.6, Plate 2) was −1.946% and −1.045% and −1.4651%, the Cytotoxicity (Vero E6 cells; 0.075 μM, MOI 0.6, Plate 1) was 16.08% and 19.63% and 18.13% and the Cytotoxicity (Vero E6 cells; 0.075 μM, MOI 0.6, Plate 2) was 16.08% and 19.63% and 18.13%. The Cytotoxicity (Vero E6 cells; 0.15 μM, MOI 0.6, Plate 1) was 35.37% and 35.25% and 31.56%, the Cytotoxicity (Vero E6 cells; 0.15 μM, MOI 0.6, Plate 2) was 35.37% and 35.25% and 31.56% and the Cytotoxicity (Vero E6 cells; 0.3 μM, MOI 0.6, Plate 1) was 55.54% and 56.53% and 57.44%. The Cytotoxicity (Vero E6 cells; 0.3 μM, MOI 0.6, Plate 2) was 55.54% and 56.53% and 57.44%, the Cytotoxicity (Vero E6 cells; 0.6 μM, MOI 0.6, Plate 1) was 69.74% and 68.71% and 69.51% and the Cytotoxicity (Vero E6 cells; 0.6 μM, MOI 0.6, Plate 2) was 69.74% and 68.71% and 69.51%.
In the case of `CCN(CC)CCCC(C)Nc1ccnc2cc(Cl)ccc12` (stereo not shown) [chloroquine], the IC50 (2019-nCoV) is given as 1.13 µM.
